Laboratory results as given in patent US20250213700A1, “COMPOUNDS, COMPOSITIONS, AND METHODS FOR CELL-SPECIFIC PHARMACOLOGY” (Duke University, priority 2022, published 2025).

Tests used:
[1] = test system: NMDA or AMPA-mediated transmission; test: VTA slice, NMDA or AMPA-mediated transmission; type: cell-based, mouse
Description: Electrophysiology. Preparation of Brain slices: Mice (8-10 weeks) were injected AAV10 HaloTag™-dTomato to striatum or ventral tegmental area (VTA). After 3-5 weeks, mice were deeply anesthetized with isoflurane and euthanized by decapitation. Coronal brain slices ([…]) containing striatum or VTA were prepared by standard methods using a Vibratome (Leica, VT 1200S), in ice-cold high sucrose cutting solution containing (in mM) 220 sucrose, 3 KCl, 1.25 NaH2PO4, 25 NaHCO3, 12 MgSO4.7H2O, 10 glucose, and 0.2 CaCl2) bubbled with 95% O2 and 5% CO2. […]
Whole-cell patch-clamp recording: The brain slices or retinas were perfused with bubbled aCSF at 29-30° C. with a 2 ml/min flow rate. […] Series resistance was monitored using 5-10 mV hyperpolarizing step throughout the experiment, and cells were discarded if series resistance changed more than ˜15% during the experiment. […] Statistical significance was determined using Student's t or one-way or two-way ANOVA tests. eIPSCs or eEPSCs decay time constants were obtained by fitting a single-exponential function, I(t)=I exp(−t/T)+ISS, where I(t) is the amplitude of the current at time t and ISS is the steady-state current, I is instantaneous current subtracted from Iss, and t is the time constant of decay. […]

[2] = test system: DAT-Cre mice with +HTP or ddHTP in VTA dopamine neurons; test: locomotor speed after infusion into the VTA of DAT-Cre mice; type: in vivo, mouse; conditions: for running / locomotor speed, +HTP mice: 10:1 mixture with Alexa647.1DART.2, 1.2 μL of 10 μM into the VTA; for running / locomotor speed, ddHTP mice: same dose
From the text: (FIG. 4A) Validation of gabazine.1^DART.2 in cerebellar slice. Top: voltage-clamp schematic. Bottom: tonic GABAAR in granule cells expressing ^+HTP or ^ddHTP. […] Data are mean±SEM, cells normalized to baseline. (FIG. 4B) In vivo delivery of gabazine.1^DART.2 to cerebellar granule cells. Top right: schematic of experimental approach, GCaMP6f granule-cell activity obtained in the absence of sensory stimuli. Top left: example field of view, GCaMP6f signal averaged across trials. Bottom: example calcium traces (ΔF/F) in an awake ^+HTP mouse before (baseline) and after (1 μL of 1 μM gabazine.1^DART.2) infusion. (FIG. 4C) In vivo, 1 μL of 1 μM gabazine.1^DART.2 to ^+HTP mice. Color indicates ΔF/F, each row is one cell before (left) and after (right) gabazine.1^DART.2 infusion. […] (FIG. 4D) In vivo, 1 μL of 1 μM gabazine.1^DART.2 to ^ddHTP mice. Format as in panel C. […] (FIG. 4E) Validation of gabazine.7^DART.2 in VTA slice. Top: evoked-IPSC configuration. […] Data are mean±SEM, cells normalized to baseline. […] Data are mean±SEM, normalized to baseline speed of each animal.
Behavioral assays: Assays were performed at least 3 weeks after viral injection to allow for recombinant protein expression. Mice were acclimated to head-fixation for 3 consecutive days prior to behavioral experiments. Reagents were infused into the brain via the cranial cannula. Immediately following infusion, mice were placed into open-field chambers (27 cm×27 cm) in the dark, and behavior was recorded using infrared video.
A practical issue for intrinsically active neurons is that one can no longer leverage the concept of a floor-effect (i.e., silencing an already quiet neuron), making it difficult to apply optogenetic principles of necessity and sufficiency. Thus, it was sought to examine the technical feasibility of using DART to block neurotransmitter signaling onto these cells; in essence, preventing extrinsic neurotransmitter modulation of dopamine neurons, without disrupting their intrinsic rhythm. Moreover, it was sought to use behavior as the readout, which would likely require manipulation of more cells over a larger brain volume than in the prior experiment. Given this goal, a wide dosing window is key, and thus effort was focused on gabazine.7DART.2, with expression of AAV DIO +HTPGPI or AAV DIO ddHTPGPI in DAT-Cre mice. […] Next, locomotor effects of the manipulations were assessed using the same viral parameters along with bilateral indwelling cannula.

## COc1cc(CCCCl)ccc1CCOCCNC(=O)c1ccc(CNC(=O)CCOCCOCCOCCOCCOCCOCCOCCOCCOCCOCCOCCOCCOCCOCCOCCOCCOCCOCCOCCOCCOCCOCCOCCOCCOCCOCCOCCOCCOCCOCCOCCOCCOCCOCCOCCOCCn2cc(COCCOCCOCCOCCOCCOCCNC(=O)CCCn3c(=O)c(=O)[nH]c4cc([N+](=O)[O-])c(-n5ccnc5)cc43)nn2)cc1 [YM90K.1DART.2]
[1]
  antagonism of the AMPAR in slice: potent antagonism of the AMPAR
[2]; VTA dopamine neurons
  impact on locomotion: no impact on locomotion

## COc1cc(CCCCl)ccc1CCOCCNC(=O)c1ccc(CNC(=O)CCOCCOCCOCCOCCOCCOCCOCCOCCOCCOCCOCCOCCOCCOCCOCCOCCOCCOCCOCCOCCOCCOCCOCCOCCOCCOCCOCCOCCOCCOCCOCCOCCOCCOCCOCCOCCn2cc(COCCOCCOCCOCCOCCOCCOCCCCCCOc3ccc(-c4nn(CCCCC(=O)O)c(=N)cc4C)cc3)nn2)cc1 [gabazine.7DART.2]
[1]; +HTP cells
  impact on NMDA or AMPA-mediated transmission: no impact on NMDA or AMPA-mediated transmission
[2]
  running / locomotor speed, +HTP mice: significant increase in running speed
  running / locomotor speed, ddHTP mice: no impact in ^ddHTP animals
[2]; listed as gabazine.7^DART.2
  running / locomotor speed, +HTP mice: increased locomotor speed
  running / locomotor speed, ddHTP mice: not in ^ddHTP control mice
